Measurements: paper PMC6072469, “Small molecule piperazinyl-benzimidazole antagonists of the gonadotropin-releasing hormone (GnRH) receptor” (MedChemComm, 2017)
In brackets after ≈: the same amount, converted by molar mass. Read-outs that look alike come from different tables or passages of the source.

Key:
hGnRH receptors = molecular target: T1, hGnRH receptors (Homo sapiens, UniProt P30968); test: Functional cell assay (Ca2+ FLIPR): inhibition of receptor activation by LHRH/GnRH; format: cell-based; details: for potency to inhibit GnRH receptor (in words): compared with 1 / desired range
T1 construct: host or cells: HEK293T (division-arrested, stably expressing)
T1 sequence (P30968 1-328): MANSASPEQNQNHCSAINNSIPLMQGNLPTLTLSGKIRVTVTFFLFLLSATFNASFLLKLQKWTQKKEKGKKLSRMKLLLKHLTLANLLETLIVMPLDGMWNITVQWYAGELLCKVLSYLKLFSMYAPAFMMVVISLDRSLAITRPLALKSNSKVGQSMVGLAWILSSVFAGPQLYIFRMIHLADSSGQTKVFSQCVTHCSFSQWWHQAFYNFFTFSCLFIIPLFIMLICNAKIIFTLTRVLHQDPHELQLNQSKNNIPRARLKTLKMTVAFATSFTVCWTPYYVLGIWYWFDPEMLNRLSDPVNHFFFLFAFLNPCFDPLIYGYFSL
Experimental: Compounds insoluble in DMSO at 10 mM were dropped from testing. […] The lead compound WAY207024 (1) was included as a reference in the cell assay. All IC50 values obtained for each test compound in the concentration dependent screening were converted into Ki values using the equation of Cheng and Prusoff.[15] […]
DMEM (Corning Hanks’ Balanced PBS +/- IBMX 1 mM IBMX in Cellgro 10- 013- Salt Solution (TBD by PBS
CV): 90%; (HBSS) titration)
_FBS (Seradigm with 20 mM
Plating cell density for Plating cell density for Forskolin concentration 384-well microplate 384-well microplate for cAMP assay (Gαi-for Ca++ assay for cAMP assay coupled) immediately immediately 5-15 μM without IBMX;
Assay preparations, pretreatment of cells and seeding on 384 well plates.
Thawing Medium was prepared by mixing commercially available stock solutions of DMEM (Corning Cellgro 10-013-CV) and Fetal Bovine Serum, FBS (Seradigm Catalog #1500-500) in a volume ratio of 9:1.
Vials containing 4 x 10^6 frozen cells were transferred from liquid nitrogen to a 37 °C water bath and gently warmed while submerged under water. Immediately after the frozen cells are thawed, the cryovial was removed from the water bath, dried and cleaned with 70% alcohol. Using a 2 mL serological pipette, the cell suspension was transferred to a 15-mL conical centrifuge tube containing 5 mL DMEM pre-warmed to r.t.. The mixture was triturated gently with the same 2 mL serological pipette without causing any air bubbles.
The 15-mL tube was spun at 200x g for 5 minutes at r.t. the supernatant was removed and cells were resuspended in 11 mL of DMEM complete to obtain a cell concentration of 360000 cells/ml. Based on previous titration of cell densitites, 9000 cells were seeded per well and the plate was incubated over night at 37 °C/CO 2.
1. Loading buffer from MD is prepared. Dissolve 1 vial of dye in 10 mL buffer from kit.
2. HBBS/Hepes (1x with Ca/Mg)/20 mM Hepes, pH 7.4 with 0.1 % BSA to be used for dilution of the agonist
3. 60 mL HBBS/20 mM Hepes to be added to test compounds
The day of the assay the seeding medium was carefully decanted from each well by tilting the plate. 25 µl loading buffer containing the Ca 2+ sensing dye was added to each well. Subsequently, 20 µL of HBBS/Hepes were added to each well containing dye. Plates were incubated at 37 °C for 45 min, after which 5 µL antagonist solution (diluted in HBBS/HEPES) were dispensed into each well using a Hamilton 384 well head followed by incubation at r.t. for 15 min. After 15 min agonist was added on the FLIPR platform and the fluorescence signal […]
First sequence: 2 s, 30 sample. (Baseline)
Second sequence: 2 s, 120 sample. (Agonist stimulation)
12.5 µL addiiton, after sample 30.
Addition speed: 20 µl/sec
Compound concentration: 5x, add 12.5 µl of each
One minute baseline stabilisation, 240 s measurement
Compound plate preparation:
Agonist stock solution: Luteinizing hormone releasing hormone, 10 mM in water […]
Dissolve 5 mg in 423 µL of water, store at -80 °C until use.
Prepare a full plate with only agonist at experimental EC50 dose as reported before on FLIPR platform:
Dilute 3,225 µL in 25 mL HBSS/Hepes buffer with 0.1 % BSA
Test compounds (antagonists)
Sample to be analysed (>95% pure by HPLC/microanalysis, fully characterised).
DMSO for cell culture (reference free, anhydrous) stored in desiccator 1: Dimethyl sulfoxide (Hybri-Max™, sterile-filtered, BioReagent, suitable for hybridoma, ≥99.7%, D2650-5X10ML, Sigma-Aldrich) […]
A - Solubility of the sample is assessed with an aliquot of the material and DMSO prior to sample preparation.
B - 10 ±1 mg of each neat, homogeneous sample are weighed into a labelled 1.5 mL flip-top Eppendorff tube.

[1] = Solubility (method not given); format: physicochemical
[2] = Thermodynamic solubility assay (Analiza, LC-QTOFMS); format: physicochemical; details: for solubility thermodynamic at 24 h: 24 hour incubation, ambient temperature
Experimental: Thermodynamic solubility assay
Analysis performed at Analiza, Cleveland Ohio.
Apparatus Agilent G6538 QTOF Mass Spectrometer equipped with dual Electrospray Ionization with Mass Hunter data software package Agilent 1290 Infinity II UHPLC system equipped with photodiode array detector, binary pump, vacuum degasser, column heater, thermostat and validated data acquisition software Standard Laboratory equipment (e.g. Pyrex volumetric flasks, graduated cylinders and bottles, sonicator, vortexer, digital timer, calibrated analytical balance, pipettes and tips
Test Compounds: were supplied as dry powder in vials
Consumables: Sodium Chloride (Cat # 21618) was purchased from Affymetrix, Cleveland, OH. HPLC grade water (Cat # EM-WX0004-1), Omnisolv Acetonitrile and (Cat #EM-AX0142-1, DimethylSulfoxide (Cat #D1258) was purchased from Spectrum Chemical, New Brunswick, NJ. DeepWell 96 well plates (Cat #AWLS-219002) were purchased from Arctic White, Bethlehem, PA. Whatman Mini UniPrep syringe-less filter device with […] PTFE filter membrane (Cat #US203NPUORG), Formic Acid (Cat# 0961-100mL) and Round bottom 96 well plates (Cat# 29444-104) were purchased from VWR, Radnor, PA. Benzthiazide (Cat # B7149) and Alprenolol (Cat# A0360000) were purchased from Sigma-Aldrich, St. Louis, MO. Hydrochloric acid,36%, (Cat # 124635000) and Phosphate Buffered Saline, 10X PBS solution, (Cat # BP399-500) were purchased from Fisher Scientific, Fair Lawn, New Jersey.
Preparation of Calibration Standards for LC-MS Analysis:
Separate test compound was weighed into 4mL vials for calibration curves. Samples were received as dry powders in vials containing approximately 5mg of material each. Upon arrival at Analiza the vials were intact.
DimethylSulfoxide (DMSO) was added to each sample such that the final concentration was 10mM and vortexed for 5-10 seconds. After vortexing, all compounds appeared to be fully dissolved. Each test compound was transferred to a polypropylene 96 well plate for robotic preparation of calibration standards.
Each test article DMSO stock solution was serially diluted using a Hamilton STARlet liquid handler with 50-50 LC-MS water 0.1% Formic Acid and LC-MS acetonitrile 0.1% Formic Acid to final concentrations as described below in Table 1 and plated in a polypropylene 96 well plate sealed with foil seal for analysis. A standard calibration curve was prepared for each compound from these dilutions.
Ambient Temperature Test compounds were received as dry powders in vials containing approximately 5mg of material each. Upon arrival at Analiza the vials were intact. Each sample was weighed into a Whatman vial and the appropriate Buffer (450uL) was added to each vial for a dose concentration of approximately 2mg/mL .
Following 24 hour incubation on a rotary shaker (200 RPM) at ambient temperature (22.6-25.0°C), the samples were filtered in a 96 well polypropylene plate. The plate was sealed with a pierceable heat seal and analyzed by […]
Quantitation: 1.) LC-QTOFMS: a. Each sample was weighed into a whatman vial and the appropriate buffer (450uL) was added to each vial for a dose concentration of approximately 2mg/mL incubated for 24 hours and filtered b. The filtrates were assayed undiluted or diluted 100X, 1000X, and/or 10000x with a 50:50 solution of mobile phase and eluted using a fast generic gradient program. c. […] The filtrates were quantified with respect to this calibration curve. […]

human GnRH receptor = molecular target: human GnRH receptor; set-up: method as in PMID 19271735; details: concentration to inhibit GnRH binding to the receptor by 50% ref 11; read-out: IC50 (hGnRH); cited from earlier work
rat GnRH receptor = molecular target: rat GnRH receptor; set-up: method as in PMID 19271735; details: concentration to inhibit GnRH binding to the receptor by 50% ref 11; read-out: IC50 (rGnRH); cited from earlier work
[3] = calculated from mean IC50 using the Cheng–Prusoff equation, read-out: Ki (hGnRH)
[4] = inhibition of LHRH/GnRH stimulation in cells stably expressing hGnRH receptors, IC50 geometric mean of two experiments, read-out: pIC50 (hGnRH) (converted)
[5] = pH 1.2 (simulated gastric fluid)
[6] = pH 7.4 (phosphate buffered saline)

CC(C)(C)c1ccc(-c2nc3c(N4CCN(CCF)CC4)cccc3[nH]2)cc1 [7a]
potency, fold lower than 1 (hGnRH receptors; relative to 1): 21 fold
solubility [1]: > 0.1 µM

CC(=O)NC1C(O)C(O)C(CO)OC1n1cc(CN2CCN(c3cccc4[nH]c(-c5ccc(C(C)(C)C)cc5)nc34)CC2)nn1 (stereo not shown) [8f]
Ki (hGnRH receptors; [3]): > 1000 nM
IC50 (hGnRH receptors; [4]): > 10000 nM

Cc1cn(C2CC(n3cc(CN4CCN(c5cccc6[nH]c(-c7ccc(C(C)(C)C)cc7)nc56)CC4)nn3)C(CO)O2)c(=O)[nH]c1=O (stereo not shown) [8g]
Ki (hGnRH receptors; [3]): 38 nM
IC50 (hGnRH receptors; [4]): 2000 nM
solubility thermodynamic at 24 h [2, 5]: 1200 µg/mL (≈ 1880 µM)
solubility thermodynamic at 24 h [2, 6]: < 1 µg/mL

CC(C)(C)c1ccc(-c2nc3c(N4CCN(Cc5cccc6nccnc56)CC4)cccc3[nH]2)cc1 [compound 1]
IC50 (human GnRH receptor): 12 nM
IC50 (rat GnRH receptor): 72 nM

CSc1nc(NC(C)C)nc(-n2cc(CN3CCN(c4cccc5[nH]c(-c6ccc(C(C)(C)C)cc6)nc45)CC3)nn2)n1 [8j]
IC50 (hGnRH receptors): > 10000 nM
Ki (hGnRH receptors): > 1000 nM

C#CCN1CCN(c2cccc3[nH]c(-c4ccc(C(C)(C)C)cc4)nc23)CC1 [7b]
solubility [1]: > 0.1 µM

CC(C)(C)c1ccc(-c2nc3c(N4CCN(Cc5cn(-c6nc7ccccc7[nH]6)nn5)CC4)cccc3[nH]2)cc1 [8h]
potency to inhibit GnRH receptor (in words) (hGnRH receptors): did not give the desired inhibition

CC(C)(C)c1ccc(-c2nc3c(N4CCN(Cc5cn(-c6ccc(F)cc6)nn5)CC4)cccc3[nH]2)cc1 [8i]
potency to inhibit GnRH receptor (in words) (hGnRH receptors): did not give the desired inhibition

CC(C)(C)c1ccc(-c2nc3c(N4CCN(Cc5cn(CCF)nn5)CC4)cccc3[nH]2)cc1 [8a]
potency to inhibit GnRH receptor (in words) (hGnRH receptors): equally potent as 1
solubility thermodynamic at 24 h [2, 5]: 2100 µg/mL (≈ 4550 µM)
solubility thermodynamic at 24 h [2, 6]: 3 µg/mL (≈ 6.5 µM)
solubility, times more soluble than 1 ([2]; relative to 1): 1.5 times
